According to patent publication US12275731B2, “Azaindole inhibitors of wild-type and mutant forms of LRRK2” (DANA-FARBER CANCER INSTITUTE, INC., priority 2018, dated 2025):

Key:
Assay in all cases: KinomeScan profiling
Assay type in all cases: binding
DDR2 = biological target: T1, DDR2 (Homo sapiens, UniProt Q16832); conditions: DDR2, 1 μM; read-out: % control
T1 sequence (Q16832 22-855): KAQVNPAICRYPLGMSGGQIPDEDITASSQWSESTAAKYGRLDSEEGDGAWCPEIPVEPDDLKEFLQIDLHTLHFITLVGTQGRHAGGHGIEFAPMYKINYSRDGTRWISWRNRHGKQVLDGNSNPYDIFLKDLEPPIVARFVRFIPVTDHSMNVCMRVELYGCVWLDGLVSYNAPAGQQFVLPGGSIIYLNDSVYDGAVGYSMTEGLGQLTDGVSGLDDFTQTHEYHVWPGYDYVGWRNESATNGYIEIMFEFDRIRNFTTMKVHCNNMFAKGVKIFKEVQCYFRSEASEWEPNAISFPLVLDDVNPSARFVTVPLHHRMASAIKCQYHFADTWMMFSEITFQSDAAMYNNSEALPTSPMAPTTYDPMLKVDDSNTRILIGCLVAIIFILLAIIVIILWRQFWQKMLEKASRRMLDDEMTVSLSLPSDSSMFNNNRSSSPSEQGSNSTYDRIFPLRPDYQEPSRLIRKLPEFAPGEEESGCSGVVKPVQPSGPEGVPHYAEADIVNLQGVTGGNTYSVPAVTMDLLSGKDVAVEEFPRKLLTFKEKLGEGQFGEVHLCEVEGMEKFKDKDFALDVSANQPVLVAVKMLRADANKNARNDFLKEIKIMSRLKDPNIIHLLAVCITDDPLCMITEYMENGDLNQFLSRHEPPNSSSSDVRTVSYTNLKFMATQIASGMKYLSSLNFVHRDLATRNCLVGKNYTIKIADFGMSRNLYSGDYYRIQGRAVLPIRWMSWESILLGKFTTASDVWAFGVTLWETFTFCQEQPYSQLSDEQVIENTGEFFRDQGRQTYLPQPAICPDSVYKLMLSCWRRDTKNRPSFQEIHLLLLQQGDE
Summary of the method: (§1)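 Test agents were profiled at a single concentration of 1 μM (DMSO vehicle) on a near-complete set of 468 kinases. Signal is reported relative to vehicle (100%) and a fully displacing control (0%).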

KIT(A829P) = biological target: T2, KIT(A829P) (Homo sapiens, UniProt P10721, A829P); conditions: read-out: % control
T2 construct: purchased KinomeScan®
T2 sequence (P10721 26-976 A829P): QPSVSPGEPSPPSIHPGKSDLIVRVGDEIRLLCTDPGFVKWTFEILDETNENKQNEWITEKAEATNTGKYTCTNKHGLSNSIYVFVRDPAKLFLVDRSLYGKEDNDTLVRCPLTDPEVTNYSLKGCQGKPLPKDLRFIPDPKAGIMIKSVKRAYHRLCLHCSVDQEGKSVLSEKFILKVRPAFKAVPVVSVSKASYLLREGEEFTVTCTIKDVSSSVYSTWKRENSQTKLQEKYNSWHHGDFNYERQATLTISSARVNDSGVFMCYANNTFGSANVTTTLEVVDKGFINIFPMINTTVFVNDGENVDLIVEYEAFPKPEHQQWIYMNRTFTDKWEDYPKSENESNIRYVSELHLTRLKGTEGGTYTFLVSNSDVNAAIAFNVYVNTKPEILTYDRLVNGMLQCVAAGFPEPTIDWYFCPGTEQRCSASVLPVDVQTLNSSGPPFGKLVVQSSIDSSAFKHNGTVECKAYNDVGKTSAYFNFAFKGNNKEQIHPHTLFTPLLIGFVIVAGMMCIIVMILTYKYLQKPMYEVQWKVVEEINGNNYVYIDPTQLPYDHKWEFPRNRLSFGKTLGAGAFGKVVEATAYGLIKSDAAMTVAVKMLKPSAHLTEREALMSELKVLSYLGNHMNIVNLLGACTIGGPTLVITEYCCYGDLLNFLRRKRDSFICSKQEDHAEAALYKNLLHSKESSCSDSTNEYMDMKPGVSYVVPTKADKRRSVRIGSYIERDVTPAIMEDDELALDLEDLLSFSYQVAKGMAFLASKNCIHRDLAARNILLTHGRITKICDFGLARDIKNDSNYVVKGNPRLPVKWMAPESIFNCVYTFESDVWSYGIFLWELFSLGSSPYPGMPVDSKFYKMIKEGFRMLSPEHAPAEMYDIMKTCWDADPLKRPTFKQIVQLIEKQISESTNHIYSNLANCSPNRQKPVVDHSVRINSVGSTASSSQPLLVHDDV
Summary of the method: as §1

[1] = biological target: T3, RSK2(Kin.Dom.2-C-terminal) (Homo sapiens, UniProt P51812); conditions: read-out: % control
T3 construct: RSK2(Kin.Dom.2-C-terminal)
T3 sequence (P51812 422-679 limits assumed): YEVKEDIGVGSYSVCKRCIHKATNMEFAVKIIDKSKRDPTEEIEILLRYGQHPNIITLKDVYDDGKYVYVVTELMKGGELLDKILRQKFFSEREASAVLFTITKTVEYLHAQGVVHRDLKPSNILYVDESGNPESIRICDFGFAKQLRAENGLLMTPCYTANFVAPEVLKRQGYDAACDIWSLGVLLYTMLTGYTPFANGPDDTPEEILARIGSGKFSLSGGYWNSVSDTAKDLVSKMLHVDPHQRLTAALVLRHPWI
Summary of the method: as §1

CDK4 = CDK4 (Homo sapiens, UniProt P11802); conditions: CDK4, 1 μM; read-out: % control
CDK4, sequence (P11802 whole entry): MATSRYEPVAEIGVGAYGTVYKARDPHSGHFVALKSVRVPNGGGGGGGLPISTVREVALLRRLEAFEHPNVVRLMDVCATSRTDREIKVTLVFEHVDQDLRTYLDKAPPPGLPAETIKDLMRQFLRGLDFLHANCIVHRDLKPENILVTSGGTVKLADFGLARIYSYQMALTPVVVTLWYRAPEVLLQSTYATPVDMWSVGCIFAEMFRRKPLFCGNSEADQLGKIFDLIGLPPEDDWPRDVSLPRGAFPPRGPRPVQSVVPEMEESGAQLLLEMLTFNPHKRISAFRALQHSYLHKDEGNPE
Summary of the method: as §1

AKT2 = biological target: T4, AKT2 (Homo sapiens, UniProt P31751); conditions: AKT2, 1 μM; read-out: % control
T4 construct: purchased KinomeScan®
T4 sequence (P31751 whole entry): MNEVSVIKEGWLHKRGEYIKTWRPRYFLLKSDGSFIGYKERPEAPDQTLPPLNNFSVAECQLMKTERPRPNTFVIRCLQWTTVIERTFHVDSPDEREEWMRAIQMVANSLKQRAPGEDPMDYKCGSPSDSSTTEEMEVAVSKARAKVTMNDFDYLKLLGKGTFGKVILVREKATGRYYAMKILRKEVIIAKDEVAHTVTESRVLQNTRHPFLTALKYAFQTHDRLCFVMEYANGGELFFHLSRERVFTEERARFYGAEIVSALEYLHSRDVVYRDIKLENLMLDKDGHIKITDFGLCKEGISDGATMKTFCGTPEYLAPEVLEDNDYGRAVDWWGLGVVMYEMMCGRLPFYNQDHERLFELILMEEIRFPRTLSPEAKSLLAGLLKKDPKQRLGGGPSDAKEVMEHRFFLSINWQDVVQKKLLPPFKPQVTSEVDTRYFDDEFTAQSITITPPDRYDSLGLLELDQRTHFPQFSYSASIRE
Summary of the method: as §1

TAOK3 = biological target: T5, TAOK3 (Homo sapiens, UniProt Q9H2K8); conditions: TAOK3, 1 μM; read-out: % control
T5 sequence (Q9H2K8 1-898): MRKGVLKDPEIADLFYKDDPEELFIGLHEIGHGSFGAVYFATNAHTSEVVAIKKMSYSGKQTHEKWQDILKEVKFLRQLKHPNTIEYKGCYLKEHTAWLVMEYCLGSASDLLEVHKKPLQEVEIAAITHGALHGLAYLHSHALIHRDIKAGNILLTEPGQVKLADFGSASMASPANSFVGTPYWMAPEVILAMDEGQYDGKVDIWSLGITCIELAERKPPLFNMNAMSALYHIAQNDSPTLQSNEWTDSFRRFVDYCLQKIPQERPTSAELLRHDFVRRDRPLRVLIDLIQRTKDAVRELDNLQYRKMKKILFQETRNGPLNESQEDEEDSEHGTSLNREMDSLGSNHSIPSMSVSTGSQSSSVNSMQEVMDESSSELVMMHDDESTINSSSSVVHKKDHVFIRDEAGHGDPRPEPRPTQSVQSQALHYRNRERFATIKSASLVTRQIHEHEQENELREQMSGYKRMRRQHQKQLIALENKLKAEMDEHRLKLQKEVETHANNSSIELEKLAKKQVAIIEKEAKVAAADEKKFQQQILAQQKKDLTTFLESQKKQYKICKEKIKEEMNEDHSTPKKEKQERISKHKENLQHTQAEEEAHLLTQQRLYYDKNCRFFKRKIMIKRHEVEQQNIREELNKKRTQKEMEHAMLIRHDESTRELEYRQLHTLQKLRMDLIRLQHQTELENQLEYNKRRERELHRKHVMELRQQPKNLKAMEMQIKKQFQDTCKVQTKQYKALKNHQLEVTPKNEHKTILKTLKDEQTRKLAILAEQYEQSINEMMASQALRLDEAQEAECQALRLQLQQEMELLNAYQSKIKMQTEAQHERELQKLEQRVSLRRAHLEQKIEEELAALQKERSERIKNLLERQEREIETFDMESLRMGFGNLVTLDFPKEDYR
Summary of the method: as §1

Row | Structure (SMILES) | remaining binding at 1 µM (DDR2) [%] | remaining binding at 1 µM (KIT(A829P)) [%] | remaining binding at 1 µM [1] [%] | remaining binding at 1 µM (CDK4) [%] | remaining binding at 1 µM (AKT2) [%] | remaining binding at 1 µM (TAOK3) [%]
1 | CNc1c(-c2cnn([C@H]3CCN(C(C)=O)C[C@@H]3F)c2)cnc2[nH]cc(Cl)c12 [Compound 77, 1-((3S,4S)-4-(4-(3-chloro-4-(methylamino)-1H-pyrrolo[2,3-b]pyridin-5-yl)-1H-pyrazol-1-yl)-3-fluoropiperidin-1-yl)ethan-1-one] | 86 | 46 | 98 | 85 | 100 | 95
2 | O=C(c1ccc(-c2cnc3[nH]cc(Cl)c3c2NC2CCCC2)cc1)N1CCC(N2CCOCC2)CC1 [Compound 101, (4-(3-chloro-4-(cyclopentylamino)-1H-pyrrolo[2,3-b]pyridin-5-yl)phenyl)(4-morpholinopiperidin-1-yl)methanone] | 100 | 100 | 83 | 100 | 84 | 88
3 | CNc1c(-c2ccc(C(=O)N3CCC(N4CCOCC4)CC3)cc2)cnc2[nH]cc(Cl)c12 [Compound 96, (4-(3-chloro-4-(methylamino)-1H-pyrrolo[2,3-b]pyridin-5-yl)phenyl)(4-morpholinopiperidin-1-yl)methanone] | 79 | 53 | 97 | 98 | 100 | 91
